Data published in US20190290892A1, “METHODS OF DETERMINING DOSING OF A THERAPEUTIC AGENT BASED ON MEASURED LEVELS OF A METABOLITE” (Clear Creek Bio, Inc., priority 2018, published 2019).

Assays:
advanced lung cancer = details: Gralla, weekly rapid iv injection from 5 mg/kg (200 mg/m^2), previously treated patients with advanced lung cancer; cited from earlier work
[1] = Adverse events in subjects receiving brequinar intravenously once a week; assay type: in vivo, human; details: i.v. once a week, 209 subjects
[2] = Burris, 650 mg/m^2 brequinar (days 1, 8 and 15) with 75 mg/m^2 cisplatin (day 1); cited from earlier work

SMILES: NC(=O)c1[nH]nc([C@@H]2O[C@H](CO)[C@@H](O)[C@H]2O)c1O [pyrazofurin, 5-[(2S,3R,4S,5R)-3,4-dihydroxy-5-(hydroxymethyl)oxolan-2-yl]-4-hydroxy-1H-pyrazole-3-carboxamide]
- therapeutic activity (advanced lung cancer): little therapeutic value as a single agent

SMILES: Cc1c(-c2ccc(-c3ccccc3F)cc2)nc2ccc(F)cc2c1C(=O)O [brequinar, 6-fluoro-2-(2′-fluoro-1,1′ biphenyl-4-yl)-3-methyl-4-quinoline carboxylic acid]
- All Body Systems, No. of Patients Experiencing the AE, 5y Max Grade 1 [1]: 36
- All Body Systems, No. of Patients Experiencing the AE, 5y Max Grade 2 [1]: 76
- All Body Systems, No. of Patients Experiencing the AE, 5y Max Grade 3 [1]: 55
- All Body Systems, No. of Patients Experiencing the AE, 5y Max Grade 4 [1]: 35
- Anemia, No. of Patients [1]: 90
- Anemia, No. of Patients Experiencing the AE, 5y Max Grade 1 [1]: 14
- Anemia, No. of Patients Experiencing the AE, 5y Max Grade 2 [1]: 48
- Anemia, No. of Patients Experiencing the AE, 5y Max Grade 3 [1]: 23
- Anemia, No. of Patients Experiencing the AE, 5y Max Grade 4 [1]: 5
- Anorexia, No. of Patients [1]: 15
- Anorexia, No. of Patients Experiencing the AE, 5y Max Grade 1 [1]: 11
- Anorexia, No. of Patients Experiencing the AE, 5y Max Grade 2 [1]: 3
- Anorexia, No. of Patients Experiencing the AE, 5y Max Grade 3 [1]: 1
- Anorexia, No. of Patients Experiencing the AE, 5y Max Grade 4 [1]: 0
- Anorexia, Percent [1]: 7.2%
- Constipation, No. of Patients [1]: 10
- Constipation, No. of Patients Experiencing the AE, 5y Max Grade 1 [1]: 6
- Constipation, No. of Patients Experiencing the AE, 5y Max Grade 2 [1]: 2
- Constipation, No. of Patients Experiencing the AE, 5y Max Grade 3 [1]: 1
- Constipation, No. of Patients Experiencing the AE, 5y Max Grade 4 [1]: 0
- Constipation, Percent [1]: 4.8%
- Diarrhea, No. of Patients [1]: 77
- Diarrhea, No. of Patients Experiencing the AE, 5y Max Grade 1 [1]: 43
- Diarrhea, No. of Patients Experiencing the AE, 5y Max Grade 2 [1]: 21
- Diarrhea, No. of Patients Experiencing the AE, 5y Max Grade 3 [1]: 10
- Diarrhea, No. of Patients Experiencing the AE, 5y Max Grade 4 [1]: 3
- Dyspepsia, No. of Patients [1]: 7
- Dyspepsia, No. of Patients Experiencing the AE, 5y Max Grade 1 [1]: 6
- Dyspepsia, No. of Patients Experiencing the AE, 5y Max Grade 2 [1]: 1
- Dyspepsia, No. of Patients Experiencing the AE, 5y Max Grade 3 [1]: 0
- Dyspepsia, No. of Patients Experiencing the AE, 5y Max Grade 4 [1]: 0
- Dyspepsia, Percent [1]: 3.3%
- Fatigue, No. of Patients [1]: 33
- Fatigue, No. of Patients Experiencing the AE, 5y Max Grade 1 [1]: 23
- Fatigue, No. of Patients Experiencing the AE, 5y Max Grade 2 [1]: 8
- Fatigue, No. of Patients Experiencing the AE, 5y Max Grade 3 [1]: 2
- Fatigue, No. of Patients Experiencing the AE, 5y Max Grade 4 [1]: 0
- Fever, No. of Patients [1]: 11
- Fever, No. of Patients Experiencing the AE, 5y Max Grade 1 [1]: 4
- Fever, No. of Patients Experiencing the AE, 5y Max Grade 2 [1]: 7
- Fever, No. of Patients Experiencing the AE, 5y Max Grade 3 [1]: 0
- Fever, No. of Patients Experiencing the AE, 5y Max Grade 4 [1]: 0
- Fever, Percent [1]: 5.3%
- Granulocytopenia, No. of Patients [1]: 37
- Granulocytopenia, No. of Patients Experiencing the AE, 5y Max Grade 1 [1]: 16
- Granulocytopenia, No. of Patients Experiencing the AE, 5y Max Grade 2 [1]: 17
- Granulocytopenia, No. of Patients Experiencing the AE, 5y Max Grade 3 [1]: 3
- Granulocytopenia, No. of Patients Experiencing the AE, 5y Max Grade 4 [1]: 5
- Headache, No. of Patients [1]: 7
- Headache, No. of Patients Experiencing the AE, 5y Max Grade 1 [1]: 4
- Headache, No. of Patients Experiencing the AE, 5y Max Grade 2 [1]: 3
- Headache, No. of Patients Experiencing the AE, 5y Max Grade 3 [1]: 0
- Headache, No. of Patients Experiencing the AE, 5y Max Grade 4 [1]: 0
- Headache, Percent [1]: 3.3%
- Infection, No. of Patients [1]: 7
- Infection, No. of Patients Experiencing the AE, 5y Max Grade 1 [1]: 4
- Infection, No. of Patients Experiencing the AE, 5y Max Grade 2 [1]: 3
- Infection, No. of Patients Experiencing the AE, 5y Max Grade 3 [1]: 0
- Infection, No. of Patients Experiencing the AE, 5y Max Grade 4 [1]: 0
- Infection, Percent [1]: 3.3%
- Leukopenia, No. of Patients [1]: 69
- Leukopenia, No. of Patients Experiencing the AE, 5y Max Grade 1 [1]: 26
- Leukopenia, No. of Patients Experiencing the AE, 5y Max Grade 2 [1]: 31
- Leukopenia, No. of Patients Experiencing the AE, 5y Max Grade 3 [1]: 10
- Leukopenia, No. of Patients Experiencing the AE, 5y Max Grade 4 [1]: 2
- Leukopenia, Percent [1]: 33.0%
- Mucositis, No. of Patients [1]: 52
- Mucositis, No. of Patients Experiencing the AE, 5y Max Grade 1 [1]: 23
- Mucositis, No. of Patients Experiencing the AE, 5y Max Grade 2 [1]: 15
- Mucositis, No. of Patients Experiencing the AE, 5y Max Grade 3 [1]: 11
- Mucositis, No. of Patients Experiencing the AE, 5y Max Grade 4 [1]: 3
- Nausea, No. of Patients [1]: 91
- Nausea, No. of Patients Experiencing the AE, 5y Max Grade 1 [1]: 59
- Nausea, No. of Patients Experiencing the AE, 5y Max Grade 2 [1]: 19
- Nausea, No. of Patients Experiencing the AE, 5y Max Grade 3 [1]: 12
- Nausea, No. of Patients Experiencing the AE, 5y Max Grade 4 [1]: 1
- Pain Inject Site, No. of Patients [1]: 24
- Pain Inject Site, No. of Patients Experiencing the AE, 5y Max Grade 1 [1]: 24
- Pain Inject Site, No. of Patients Experiencing the AE, 5y Max Grade 2 [1]: 0
- Pain Inject Site, No. of Patients Experiencing the AE, 5y Max Grade 3 [1]: 0
- Pain Inject Site, No. of Patients Experiencing the AE, 5y Max Grade 4 [1]: 0
- Pain, Abdominal, No. of Patients [1]: 8
- Pain, Abdominal, No. of Patients Experiencing the AE, 5y Max Grade 1 [1]: 4
- Pain, Abdominal, No. of Patients Experiencing the AE, 5y Max Grade 2 [1]: 3
- Pain, Abdominal, No. of Patients Experiencing the AE, 5y Max Grade 3 [1]: 1
- Pain, Abdominal, No. of Patients Experiencing the AE, 5y Max Grade 4 [1]: 0
- Pain, Abdominal, Percent [1]: 3.8%
- Rash, No. of Patients [1]: 53
- Rash, No. of Patients Experiencing the AE, 5y Max Grade 1 [1]: 26
- Rash, No. of Patients Experiencing the AE, 5y Max Grade 2 [1]: 15
- Rash, No. of Patients Experiencing the AE, 5y Max Grade 3 [1]: 9
- Rash, No. of Patients Experiencing the AE, 5y Max Grade 4 [1]: 3
- Somnolence, No. of Patients [1]: 9
- Somnolence, No. of Patients Experiencing the AE, 5y Max Grade 1 [1]: 7
- Somnolence, No. of Patients Experiencing the AE, 5y Max Grade 2 [1]: 2
- Somnolence, No. of Patients Experiencing the AE, 5y Max Grade 3 [1]: 0
- Somnolence, No. of Patients Experiencing the AE, 5y Max Grade 4 [1]: 0
- Somnolence, Percent [1]: 4.3%
- Stomatitis, No. of Patients [1]: 60
- Stomatitis, No. of Patients Experiencing the AE, 5y Max Grade 1 [1]: 32
- Stomatitis, No. of Patients Experiencing the AE, 5y Max Grade 2 [1]: 20
- Stomatitis, No. of Patients Experiencing the AE, 5y Max Grade 3 [1]: 7
- Stomatitis, No. of Patients Experiencing the AE, 5y Max Grade 4 [1]: 1
- Thrombocytopenia, No. of Patients [1]: 94
- Thrombocytopenia, No. of Patients Experiencing the AE, 5y Max Grade 1 [1]: 26
- Thrombocytopenia, No. of Patients Experiencing the AE, 5y Max Grade 2 [1]: 31
- Thrombocytopenia, No. of Patients Experiencing the AE, 5y Max Grade 3 [1]: 16
- Thrombocytopenia, No. of Patients Experiencing the AE, 5y Max Grade 4 [1]: 21
- Thrombocytopenia, Percent [1]: 45.0%
- Vomit, No. of Patients [1]: 73
- Vomit, No. of Patients Experiencing the AE, 5y Max Grade 1 [1]: 32
- Vomit, No. of Patients Experiencing the AE, 5y Max Grade 2 [1]: 24
- Vomit, No. of Patients Experiencing the AE, 5y Max Grade 3 [1]: 12
- Vomit, No. of Patients Experiencing the AE, 5y Max Grade 4 [1]: 5
- effect of combination on individual drug pharmacokinetic parameters [2]: without significant modifications of individual drug pharmacokinetic parameters
